From patent US7521540B2, “CYR61 compositions and methods” (Munin Corporation, priority 1996, dated 2009)

Tests used:
[1] = tested on: Human Microvascular Endothelial Cells; assay: Endothelial cell migration, inverted modified Boyden chamber; type: cell-based; conditions: 0.01-10 μg/ml
Procedure: In an alternative in vitro assay for angiogenic activity, an assay for endothelial cell migration was developed. […] Primary Human Microvascular Endothelial Cells (HMVEC PO51, Clonetics, San Diego, Calif.) were maintained in DME with 10% donor calf serum (Flow Laboratories, McLean, Va.) and 100 μg/ml endothelial celi mitogen (Biomedical Technologies Inc., Stoughton, Mass.). The cells were used between passages 10 and 15. To measure migration, cells were starved for 24 hours in DME containing 0.1% BSA, harvested, resuspended in DME with 0.1% BSA, and plated at 1.75×10^4 cells/well on the lower surface of a gelatinized 0.5 μm filter (Nucleopore Corporation, Pleasanton. Calif.) in an inverted modified Boyden chamber. After 1-2 hours at 37° C., during which time the cells were allowed to adhere to the filter, the chamber was reverted to its normal position. […] Chambers were disassembled, membranes fixed and stained, and the number of cells that had migrated to the top of the filter in 3 high-powered fields was determined. […]
To allow comparison of experiments performed on different days, migration data is reported as the percent of maximum migration towards the positive control, calculated after subtraction of background migration observed in the presence of DME plus BSA. […] Detachment was detected by counting cells on the lower face of the membrane. […]

HUVE cells = assay: Thymidine incorporation (mitogen potentiation), HUVE cells; type: cell-based, human
Procedure: Human umbilical vein endothelial cells were plated essentially as described above for 3T3 cells and exposed to a constant amount of murine Cyr61; controls received no Cyr61. Different plates were then exposed to different levels of bFGF, comprising a series of bFGF concentrations ranging from 0-10 ng/ml. […] At 1 ng/ml bFGF, however, HUVE cells increased their thymidine incorporation in the presence of bFGF to 6×10^2 cpm; in the presence of 1 ng/ml bFGF and murine Cyr61, HUVE cells incorporated 1.3×10^3 cpm. At 10 ng/ml bFGF, cells exposed to bFGF incorporated about 1.8×10^3 cpm thymidine; cells receiving 10 ng/ml bFGF and Cyr61 incorporated approximately 6.1×10^3 cpm.
The capacity of murine Cyr61 to potentiate the mitogenic activity of bFGF was verified by a thymidine incorporation assay involving HUVE cells and various combinations of bFGF, Cyr61, and anti-Cyr61 antibodies. Cells were plated and grown as described above. The following combinations of supplements (final plate concentrations noted parenthetically) were then pre-incubated for 1 hour before addition to individual plates: 1) pre-immune antiserum (3%); 2) bFGF (15 ng/ml) and pre-immune antiserum (3%); 3) pre-immune antiserum (3%) and Cyr61 (4 μg/ml); 4) pre-immune antiserum (3%), Cyr61 (4 μg/ml), and bFGF (15 ng/ml); 5) anti-Cyr61 antiserum (3%); 6) anti-Cyr61 antiserum and bFGF (15 ng/ml); 7) anti-Cyr61 antiserum (3%) and Cyr61 (4 μg/ml); and 8) anti-Cyr61 antiserum (3%), Cyr61 (4 μg/ml), and bFGF (15 ng/ml).
DNA synthesis for HUVE cells and NIH 3T3 fibroblasts was measured by thymidine incorporation as described previously (Kireeva et al., [1996]) with minor modifications. HUVE cells were grown in 24-well plates to a subconfluent state, serum-starved for 24 hours and treated with F12K medium containing 10% fetal bovine serum (FBS), 1 μCi/ml [^3H]-thymidine and 10 ng/ml basic Fibroblast Growth Factor (bFGF) (Gibco-BRL, Inc.) with various concentrations of Cyr61 and Fisp12 as indicated. […] Thymidine incorporation into the trichloroacetic acid-insoluble fraction was determined after 24 hour incubation. […]

NIH 3T3 fibroblasts = assay: Thymidine incorporation (mitogen potentiation), NIH 3T3; type: cell-based, mouse; conditions: bFGF 15 ng/ml or PDGF-BB 30 ng/ml
Procedure: More specifically, NIH 3T3 fibroblast cells were plated on 24-well plates at 3×10^4 cells/well and grown in DMEM with 10% fetal bovine serum (Intergen Co., Purchase, N.Y.) for 3-4 days and incubated with medium containing 0.2% FBS for the following 48 hours. The following compounds, at the parenthetically noted final concentrations, were then added to the plated cells in fresh DMEM containing 0.2% fbs and [^3H]-thymidine (1 μCi/ml final concentration; ICN Biomedicals, Inc., Costa Mesa, Calif.): bFGF (15 ng/ml), PDGF-BB (30 ng/ml), and murine Cyr61 (0.5-5 μg/ml). These compounds were added to individual plates according to the following pattern: 1) no supplementation; 2) murine Cyr61; 3) bFGF; 4) murine Cyr61 and bFGF; 5) PDGF-BB; and 6) murine Cyr61 and PDGF. After 18-20 hours of incubation, cells were washed with PBS and fixed with 10% trichloroacetic acid. DNA was dissolved in 0.1 N NaOH and thymidine incorporation was determined. […] Without any supplements, 3T3 cells incorporated approximately 1.8×10^4 cpm of [^3H]-thymidine, in the presence or absence of Cyr61. […]
DNA synthesis for HUVE cells and NIH 3T3 fibroblasts was measured by thymidine incorporation as described previously (Kireeva et al., [1996]) with minor modifications. […] Thymidine incorporation into the trichloroacetic acid-insoluble fraction was determined after 24 hour incubation. […]

## bFGF: Growth factor used as positive control [reference compound]
[1]
  migrated cells per three high-powered microscope fields: 92 cells
HUVE cells; 0-0.1 ng/ml bFGF, presence or absence of Cyr61, 72 hours
  thymidine incorporation, baseline: approximately 4×10^2 cpm
HUVE cells; 1 ng/ml bFGF
  thymidine incorporation, bFGF alone: 6×10^2 cpm
HUVE cells; 10 ng/ml bFGF
  thymidine incorporation, bFGF alone: about 1.8×10^3 cpm
NIH 3T3 fibroblasts
  [3H]-thymidine incorporation, growth factor alone: about 1.2×10^5 cpm
